{
  "source": "patent US20160114062A1",
  "about": "“TREATMENT OF IMMUNE, INFLAMMATORY AND DEGENERATIVE ARTHRITIDES WITH TIN-117m” (RHEUMCO LLC, priority 2013, published 2016)",
  "key": {"[1]": {"assay": "Biodistribution, 2nd study (HSA Sn-117m annexin) in collagen-induced arthritic rats", "format": "in vivo, Rat", "details": "dose 50 (mCi), at sacrifice Day 14", "procedure": "(§1) In order to test the efficacy of the present invention, a standard arthritic rat model was employed. Specifically, rodents were injected with collagen, which induced a reaction similar to rheumatoid arthritis. […] Two different studies were conducted.\n(§2) At around day 14, the animals were sacrificed and tissues sent for histological analyses."}, "[2]": {"system": "standard arthritic rat model (collagen induced rheumatoid arthritis-like)", "assay": "Histopathology of knees, 2nd study (HSA Sn-117m annexin)", "format": "in vivo", "details": "for Bone Resorption Score / Cartilage Damage Score / Inflammation Score / Pannus Score: score 0-5, 0 = normal, 5 = severe", "procedure": "as §1, §2"}, "[3]": {"details": "L knee (injected), ~50 uCi into L synovium"}, "[4]": {"details": "R knee, ~50 uCi into L synovium"}, "[5]": {"details": "mean of all animals, both knees, both routes, score 0-5"}},
  "note": "Values joined by “and” are separate entries in the source; they are usually repeats but may differ in a detail not shown here. Equal entries are not always repeated.",
  "data": [
    {"substance": "Sn-117m Annexin: High specific activity tin-117m attached to annexin V through an aminobenzyl DOTA linker", "values": [
      {"measurement": "Right Leg (% ID)", "setting": "[1]; L Synovium injection", "result": 0.1, "unit": "% ID"},
      {"measurement": "Left leg (% ID)", "setting": "[1]; Retro-orbital injection", "result": 0.1, "unit": "% ID"},
      {"measurement": "Right Leg (% ID)", "setting": "[1]; Retro-orbital injection", "result": 0.1, "unit": "% ID"},
      {"measurement": "Summed Histopathology Scores", "setting": "[2]; [3]", "result": 9},
      {"measurement": "Bone Resorption Score", "setting": "[2]; [3]", "result": 1},
      {"measurement": "Cartilage Damage Score", "setting": "[2]; [3]", "result": 2},
      {"measurement": "Inflammation Score", "setting": "[2]; [3]", "result": 5},
      {"measurement": "Pannus Score", "setting": "[2]; [3]", "result": 1},
      {"measurement": "Summed Histopathology Scores", "setting": "[2]; L knee, ~50 uCi retro-orbital", "result": "8 and 4"},
      {"measurement": "Cartilage Damage Score", "setting": "[2]; L knee, ~50 uCi retro-orbital", "result": "1 and 0.5"},
      {"measurement": "Inflammation Score", "setting": "[2]; L knee, ~50 uCi retro-orbital", "result": "5 and 3"},
      {"measurement": "Pannus Score", "setting": "[2]; L knee, ~50 uCi retro-orbital", "result": "1 and 0.5"},
      {"measurement": "Summed Histopathology Scores", "setting": "[2]; [4]", "result": "9 and 7.5"},
      {"measurement": "Bone Resorption Score", "setting": "[2]; [4]", "result": "1 and 0.5"},
      {"measurement": "Cartilage Damage Score", "setting": "[2]; [4]", "result": "2 and 1"},
      {"measurement": "Inflammation Score", "setting": "[2]; [4]", "result": 5},
      {"measurement": "Pannus Score", "setting": "[2]; [4]", "result": 1},
      {"measurement": "Cartilage Damage Score", "setting": "[2]; R knee, ~50 uCi retro-orbital", "result": 0.5},
      {"measurement": "Pannus Score", "setting": "[2]; R knee, ~50 uCi retro-orbital", "result": 0.5},
      {"measurement": "Effectiveness (in words)", "setting": "[2]; administered directly into the synovium, second study", "result": "appears to be effective"},
      {"measurement": "Summed Histopathology Scores, Mean", "setting": "[2]; mean of all animals, both knees, both routes", "result": 7.04},
      {"measurement": "Bone Resorption Score, Mean", "setting": "[2]; [5]", "result": 0.75},
      {"measurement": "Cartilage Damage Score, Mean", "setting": "[2]; [5]", "result": 1.33},
      {"measurement": "Inflammation Score, Mean", "setting": "[2]; [5]", "result": 4.04},
      {"measurement": "Pannus Score, Mean", "setting": "[2]; [5]", "result": 0.92}
    ]}
  ]
}
